According to ChEMBL document CHEMBL3217497, “Design, synthesis and antiproliferative activity of indole analogues of indanocine” (2013):

Legend:
Format in all cases: functional
[1] = test system: MOLT-4; assay: Cytotoxicity against human MOLT4 cells assessed as growth inhibition
[2] = test system: NCI-H460; assay: Cytotoxicity against human NCI-H460 cells assessed as growth inhibition
[3] = test system: NCI-H322M; assay: Cytotoxicity against human NCI-H322M cells assessed as growth inhibition
[4] = test system: SW-620; assay: Cytotoxicity against human SW620 cells assessed as growth inhibition
[5] = test system: NCI-H522; assay: Cytotoxicity against human NCI-H522 cells assessed as growth inhibition
[6] = test system: DU-145; assay: Cytotoxicity against human DU145 cells assessed as growth inhibition
[7] = test system: SF-295; assay: Cytotoxicity against human SF295 cells assessed as growth inhibition
[8] = test system: A549; assay: Cytotoxicity against human A549 cells assessed as growth inhibition
[9] = test system: HCT-116; assay: Cytotoxicity against human HCT116 cells assessed as growth inhibition
[10] = test system: SN12C; assay: Cytotoxicity against human SN12C cells assessed as growth inhibition
[11] = test system: RPMI-8226; assay: Cytotoxicity against human RPMI8226 cells assessed as growth inhibition
[12] = test system: KM12; assay: Cytotoxicity against human KM12 cells assessed as growth inhibition
[13] = test system: COLO 205; assay: Cytotoxicity against human COLO205 cells assessed as growth inhibition
[14] = test system: T47D; assay: Cytotoxicity against human T47D cells assessed as growth inhibition
[15] = test system: SF-539; assay: Cytotoxicity against human SF539 cells assessed as growth inhibition
[16] = test system: RXF 393; assay: Cytotoxicity against human RXF393 cells assessed as growth inhibition
[17] = test system: 786-0; assay: Cytotoxicity against human 786-0 cells assessed as growth inhibition
[18] = test system: NCI-H226; assay: Cytotoxicity against human NCI-H226 cells assessed as growth inhibition
[19] = Cytotoxicity against human OVCAR3 cells assessed as growth inhibition; conditions: OVCAR-3
[20] = test system: PC-3; assay: Cytotoxicity against human PC3 cells assessed as growth inhibition
[21] = Cytotoxicity against human UACC257 cells assessed as growth inhibition; conditions: UACC-257
[22] = Cytotoxicity against human UO31 cells assessed as growth inhibition; conditions: UO-31
[23] = test system: CAKI-1; assay: Cytotoxicity against human CAKI-1 cells assessed as growth inhibition
[24] = test system: SNB-19; assay: Cytotoxicity against human SNB19 cells assessed as growth inhibition
[25] = Cytotoxicity against human HCT15 cells assessed as growth inhibition; conditions: HCT-15
[26] = test system: TK-10; assay: Cytotoxicity against human TK10 cells assessed as growth inhibition
[27] = Cytotoxicity against human UACC62 cells assessed as growth inhibition; conditions: UACC-62
[28] = test system: Malme-3M; assay: Cytotoxicity against human MALME-3M cells assessed as growth inhibition
[29] = test system: NCI-H23; assay: Cytotoxicity against human NCI-H23 cells assessed as growth inhibition
[30] = test system: MDA-MB-231; assay: Cytotoxicity against human MDA-MB-231 cells assessed as growth inhibition
[31] = test system: SK-MEL-5; assay: Cytotoxicity against human SK-MEL-5 cells assessed as growth inhibition
[32] = test system: MDA-MB-435; assay: Cytotoxicity against human MDA-MB-435 cells assessed as growth inhibition
[33] = test system: HOP-62; assay: Cytotoxicity against human HOP62 cells assessed as growth inhibition
[34] = test system: SK-MEL-28; assay: Cytotoxicity against human SK-MEL-28 cells assessed as growth inhibition
[35] = test system: MDA-MB-468; assay: Cytotoxicity against human MDA-MB-468 cells assessed as growth inhibition
[36] = test system: SR; assay: Cytotoxicity against human SR cells assessed as growth inhibition
[37] = Cytotoxicity against human OVCAR8 cells assessed as growth inhibition; conditions: OVCAR-8
[38] = test system: LOX IMVI; assay: Cytotoxicity against human LOXIMVI cells assessed as growth inhibition
[39] = test system: M14; assay: Cytotoxicity against human M14 cells assessed as growth inhibition
[40] = test system: HOP-92; assay: Cytotoxicity against human HOP92 cells assessed as growth inhibition
[41] = test system: SK-MEL-2; assay: Cytotoxicity against human SK-MEL-2 cells assessed as growth inhibition
[42] = test system: SNB-75; assay: Cytotoxicity against human SNB75 cells assessed as growth inhibition
[43] = test system: K562; assay: Cytotoxicity against human K562 cells assessed as growth inhibition
[44] = test system: CCRF-CEM; assay: Cytotoxicity against human CCRF-CEM cells assessed as growth inhibition
[45] = test system: A498; assay: Cytotoxicity against human A498 cells assessed as growth inhibition
[46] = test system: SK-OV-3; assay: Cytotoxicity against human SKOV3 cells assessed as growth inhibition
[47] = test system: U-251; assay: Cytotoxicity against human U251 cells assessed as growth inhibition
[48] = Cytotoxicity against human OVCAR4 cells assessed as growth inhibition; conditions: OVCAR-4
[49] = test system: HT-29; assay: Cytotoxicity against human HT-29 cells assessed as growth inhibition
[50] = Cytotoxicity against human Hs 578T cells assessed as growth inhibition
[51] = test system: SF-268; assay: Cytotoxicity against human SF268 cells assessed as growth inhibition
[52] = test system: HCC 2998; assay: Cytotoxicity against human HCC2998 cells assessed as growth inhibition
[53] = Cytotoxicity against human NCI-ADR-RES cells assessed as growth inhibition
[54] = Cytotoxicity against human OVCAR5 cells assessed as growth inhibition; conditions: OVCAR-5
[55] = Cytotoxicity against human EKVX cells assessed as growth inhibition
[56] = test system: MCF7; assay: Cytotoxicity against human MCF7 cells assessed as growth inhibition
[57] = test system: IGROV-1; assay: Cytotoxicity against human IGROV1 cells assessed as growth inhibition
[58] = test system: HL-60(TB); assay: Cytotoxicity against human HL-60(TB) cells assessed as growth inhibition
[59] = test system: BT-549; assay: Cytotoxicity against human BT549 cells assessed as growth inhibition
[60] = test system: ACHN; assay: Cytotoxicity against human ACHN cells assessed as growth inhibition

## Cc1cc(/C=C2\Cc3c([nH]c4ccccc34)C2=O)cc(C)c1O
[1]
  GI50: 6.01 µM
[2]
  GI50: 0.42 µM
[3]
  GI50: 10.4 µM
[4]
  GI50: 0.41 µM
[5]
  GI50: 0.09 µM
[6]
  GI50: 2.05 µM
[7]
  GI50: 2.78 µM
[8]
  GI50: 1.58 µM
[9]
  GI50: 0.5 µM
[10]
  GI50: 0.62 µM
[11]
  GI50: 0.67 µM
[12]
  GI50: 0.46 µM
[13]
  GI50: 19.5 µM
[14]
  GI50: 12.6 µM
[15]
  GI50: 0.55 µM
[16]
  GI50: 1.43 µM
[17]
  GI50: 5.96 µM
[18]
  GI50: 9.6 µM
[19]
  GI50: 0.51 µM
[20]
  GI50: 3.57 µM
[21]
  GI50: 26.1 µM
[22]
  GI50: 0.32 µM
[23]
  GI50: 1.4 µM
[24]
  GI50: 0.71 µM
[25]
  GI50: 0.56 µM
[26]
  GI50: 6.27 µM
[27]
  GI50: 4.57 µM
[28]
  GI50: 0.31 µM
[29]
  GI50: 1.79 µM
[30]
  GI50: 3.19 µM
[31]
  GI50: 0.39 µM
[32]
  GI50: 0.16 µM
[33]
  GI50: 0.65 µM
[34]
  GI50: 0.73 µM
[35]
  GI50: 2.43 µM
[36]
  GI50: 0.39 µM
[37]
  GI50: 0.99 µM
[38]
  GI50: 0.69 µM
[39]
  GI50: 0.41 µM
[40]
  GI50: 7.47 µM
[41]
  GI50: 0.4 µM
[42]
  GI50: 0.29 µM
[43]
  GI50: 0.33 µM
[44]
  GI50: 2.18 µM
[45]
  GI50: 4.86 µM
[46]
  GI50: 0.73 µM
[47]
  GI50: 1.12 µM
[48]
  GI50: 10.2 µM
[49]
  GI50: 15.8 µM
[50]
  GI50: 0.55 µM
[51]
  GI50: 0.86 µM
[52]
  GI50: 7.49 µM
[53]
  GI50: 0.35 µM
[54]
  GI50: 11.1 µM
[55]
  GI50: 2.59 µM
[56]
  GI50: 0.7 µM
[57]
  GI50: 3.54 µM
[58]
  GI50: 0.34 µM

## COc1cc2c(c(N)c1OC)C(=O)/C(=C\c1cc(C)c(O)c(C)c1)C2 [INDANOCINE]
[1]
  GI50: 0.01 µM
[2]
  GI50: 0.01 µM
[3]
  GI50: 0.01 µM
[4]
  GI50: 0.01 µM
[5]
  GI50: 0.01 µM
[6]
  GI50: 0.01 µM
[7]
  GI50: 0.06 µM
[8]
  GI50: 0.01 µM
[9]
  GI50: 0.01 µM
[10]
  GI50: 0.01 µM
[11]
  GI50: 0.01 µM
[12]
  GI50: 0.01 µM
[13]
  GI50: 5.01 µM
[59]
  GI50: 10 µM
[14]
  GI50: 100 µM
[15]
  GI50: 0.01 µM
[16]
  GI50: 0.03 µM
[17]
  GI50: 0.01 µM
[18]
  GI50: 3.98 µM
[19]
  GI50: 0.01 µM
[20]
  GI50: 0.01 µM
[21]
  GI50: 100 µM
[22]
  GI50: 0.08 µM
[23]
  GI50: 3.98 µM
[24]
  GI50: 0.01 µM
[25]
  GI50: 0.01 µM
[26]
  GI50: 79.4 µM
[27]
  GI50: 0.01 µM
[29]
  GI50: 0.01 µM
[30]
  GI50: 0.01 µM
[31]
  GI50: 0.01 µM
[32]
  GI50: 0.01 µM
[33]
  GI50: 0.02 µM
[34]
  GI50: 1 µM
[36]
  GI50: 0.01 µM
[37]
  GI50: 0.01 µM
[38]
  GI50: 0.01 µM
[39]
  GI50: 0.01 µM
[40]
  GI50: 100 µM
[41]
  GI50: 1 µM
[60]
  GI50: 0.06 µM
[43]
  GI50: 0.01 µM
[44]
  GI50: 0.01 µM
[45]
  GI50: 7.94 µM
[46]
  GI50: 0.01 µM
[47]
  GI50: 0.02 µM
[48]
  GI50: 7.94 µM
[49]
  GI50: 2.51 µM
[51]
  GI50: 0.01 µM
[52]
  GI50: 2 µM
[53]
  GI50: 0.01 µM
[54]
  GI50: 0.63 µM
[55]
  GI50: 0.01 µM
[56]
  GI50: 0.01 µM
[57]
  GI50: 0.04 µM
[58]
  GI50: 0.01 µM
